In brackets after ≈: the same amount, converted by molar mass.
Conditions: 25 °C

Structure (SMILES)	solubility [mM]
c1ccc(-c2ccccc2-c2ccccc2)cc1	0.00538 (≈ 0.00124 mg/mL)
O=C(O)c1ccsc1	33.6 (≈ 4.3 mg/mL)
CN1C(=O)C(C)(C2=CCCCC2)C(=O)N=C1O (stereo unspecified)	1.84 (≈ 0.435 mg/mL)
O=C(O)COc1ccc(Cl)c(Cl)c1	2.07 (≈ 0.457 mg/mL)
O=C(Oc1ccccc1)c1ccccc1O	0.7 (≈ 0.15 mg/mL)
CC[C@H](O)C(C)C	197 (≈ 20.1 mg/mL)
C=CCc1ccc(O)c(OC)c1	27.4 (≈ 4.5 mg/mL)
CCC(C)(C)C	0.214 (≈ 0.0184 mg/mL)
CCC#CCC	6.8 (≈ 0.559 mg/mL)
Nc1ccc(-c2ccc(N)cc2)cc1	1.75 (≈ 0.322 mg/mL)
Cc1c2ccccc2c(C)c2ccccc12	0.000271 (≈ 5.6e-05 mg/mL)
O=S(=O)(O)CS(=O)(=O)O	8900 (≈ 1570 mg/mL)
COc1ccccc1	9.62 (≈ 1.04 mg/mL)
Clc1cccc(-c2ccccc2)c1	0.0192 (≈ 0.00363 mg/mL)
CCCCCCCCl	0.101 (≈ 0.0136 mg/mL)
Clc1c(Cl)c(Cl)c(-c2ccccc2)c(Cl)c1Cl	1.23e-05 (≈ 4.01e-06 mg/mL)
COc1ccc2c(c1)c(CC(=O)O)c(C)n2C(=O)/C=C/c1ccccc1	0.00286 (≈ 0.001 mg/mL)
CCOC(=O)C(C)N(C(=O)c1ccccc1)c1ccc(Cl)c(Cl)c1 (stereo unspecified)	0.0546 (≈ 0.02 mg/mL)
CC1=CCCCC1	0.541 (≈ 0.052 mg/mL)
ONc1ccccc1	259 (≈ 28.3 mg/mL)
CCCN(CCC)C(=O)SCC	1.98 (≈ 0.375 mg/mL)
CCC#CC(C)C	1.8 (≈ 0.173 mg/mL)
CN(C)CC/C=C1\c2ccccc2COc2ccccc21	0.113 (≈ 0.0316 mg/mL)
COc1cc(-c2ccc(N)c(OC)c2)ccc1N	0.246 (≈ 0.06 mg/mL)

Structure (SMILES)	solubility [mM]
Clc1cccc(-c2cc(Cl)ccc2Cl)c1	0.000982 (≈ 0.000253 mg/mL)
CC1CCC(C)(C)C1 (stereo unspecified)	0.0332 (≈ 0.00373 mg/mL)
O=S(=O)(Cl)c1ccc(I)cc1	0.0539 (≈ 0.0163 mg/mL)
CCC(C)(C)CC	0.0591 (≈ 0.00592 mg/mL)
CC1(C)C(=O)[C@@]2(C)CC[C@@H]1C2	14.1 (≈ 2.15 mg/mL)
C[C@]12CC[C@H]3C(=CCc4cc(O)ccc43)[C@@H]1CCC2=O	0.00525 (≈ 0.00141 mg/mL)
CCC(C)Cl (stereo unspecified)	10.8 (≈ 1 mg/mL)
Oc1c(Cl)cc(Cl)c(Cl)c1Cc1c(O)c(Cl)cc(Cl)c1Cl	0.344 (≈ 0.14 mg/mL)
Nc1ccc(S(=O)(=O)Nc2nccs2)cc1	3.76 (≈ 0.96 mg/mL)
O=C1CSC(=S)N1	16.9 (≈ 2.25 mg/mL)
C1=CCCCCC1	0.686 (≈ 0.066 mg/mL)
CCc1ccc(O)cc1	33.5 (≈ 4.09 mg/mL)
CC(=O)Oc1ccccc1C(=O)O	25.5 (≈ 4.6 mg/mL)
CC(C)C(C)C(C)C	0.0201 (≈ 0.0023 mg/mL)
C1OCOCO1	1940 (≈ 175 mg/mL)
COP(=S)(OC)SCCSC(C)C	0.373 (≈ 0.097 mg/mL)
C=CCCCCC	0.185 (≈ 0.0182 mg/mL)
CC(=O)O[C@@H](C(=O)O)c1ccccc1	58.7 (≈ 11.4 mg/mL)
C=CCc1ccc(OC)cc1	1.2 (≈ 0.178 mg/mL)
O=C(O)COc1ccc(Cl)cc1	5.13 (≈ 0.957 mg/mL)
O=C(O)COc1c(Cl)ccc(Cl)c1Cl	2.4 (≈ 0.613 mg/mL)
OC(c1ccccc1)(c1ccccc1)c1ccccc1	5.5 (≈ 1.43 mg/mL)
ClCBr	129 (≈ 16.7 mg/mL)
c1ccc2c(c1)CCN2	90.6 (≈ 10.8 mg/mL)

Structure (SMILES)	solubility [mM]
CN(C)C(=O)N[C@@H]1C[C@@H]2C[C@H]1[C@@H]1CCC[C@H]21	0.675 (≈ 0.15 mg/mL)
CCC(C)c1ccccc1 (stereo unspecified)	0.131 (≈ 0.0176 mg/mL)
Cc1ccccc1C(=O)O	8.67 (≈ 1.18 mg/mL)
CCCCCO	250 (≈ 22 mg/mL)
Cc1ccc2ccccc2c1	0.173 (≈ 0.0246 mg/mL)
O=C(O)CNC(=O)c1ccccc1	20.9 (≈ 3.75 mg/mL)
NCCC(=O)O	6120 (≈ 545 mg/mL)
Clc1cccc(-c2cccc(Cl)c2)c1	0.00159 (≈ 0.000355 mg/mL)
Cc1ccc(N=C=S)cc1	0.019 (≈ 0.00283 mg/mL)
CCCCC(N)C(=O)O (racemic)	88.5 (≈ 11.6 mg/mL)
CC(C)[C@@H](N)C(=O)O (racemic)	563 (≈ 66 mg/mL)
O=C(O)c1ccc(F)cc1	8.56 (≈ 1.2 mg/mL)
O=C(O)C(=O)Nc1ccccc1	49.9 (≈ 8.24 mg/mL)
O=C(O)COc1cccc(Cl)c1Cl	1.55 (≈ 0.343 mg/mL)
O=C(Nc1ccccc1)c1ccccc1O	0.258 (≈ 0.055 mg/mL)
C1CCCCCC1	0.306 (≈ 0.03 mg/mL)
COc1cc(C=O)ccc1O	72.3 (≈ 11 mg/mL)
CC(C)CC(C)(C)C	0.0196 (≈ 0.00224 mg/mL)
C#CCCCCC	0.977 (≈ 0.094 mg/mL)
Cc1cc(Cl)ccc1OCC(=O)O	3.14 (≈ 0.63 mg/mL)
COP(=O)(Oc1ccccc1)Oc1ccccc1	7.57 (≈ 2 mg/mL)
C=C(Cl)CSC(=S)N(CC)CC	0.447 (≈ 0.1 mg/mL)

Same assay, conditions: 27 °C

Structure (SMILES)	solubility [mM]
Cc1cc2ccccc2c2ccc3ccccc3c12	0.000256 (≈ 6.2e-05 mg/mL)
C#C[C@]1(O)CC[C@H]2[C@@H]3CCC4=CC(=O)CC[C@]4(C)[C@H]3CC[C@@]21C	0.0022 (≈ 0.000687 mg/mL)

Same assay, conditions: 28 °C

Structure (SMILES)	solubility [mM]
c1ccc2c(c1)CCCC2	0.354 (≈ 0.0468 mg/mL)
COc1ccc(C[C@H]2NC[C@H](O)[C@H]2OC(C)=O)cc1	24.7 (≈ 6.55 mg/mL)

Same assay, conditions: 30 °C

Structure (SMILES)	solubility [mM]
CC(=O)Nc1nnc(S(N)(=O)=O)s1	4.41 (≈ 0.98 mg/mL)
COP(=S)(OC)Oc1ccc(C#N)cc1	0.189 (≈ 0.046 mg/mL)
ClC(Cl)Br	18.5 (≈ 3.03 mg/mL)
CCCCC(=O)CCCC	2.55 (≈ 0.363 mg/mL)
O=C(O)CCCCCCCCCCBr	0.2 (≈ 0.053 mg/mL)
C#CC=C	34.3 (≈ 1.79 mg/mL)
CN(C)CCN(Cc1ccccc1)c1ccccn1	2.3 (≈ 0.587 mg/mL)
